# Publication PMC11206988, “Study on the Effect of Pharmaceutical Excipient PEG400 on the Pharmacokinetics of Baicalin in Cells Based on MRP2, MRP3, and BCRP Efflux Transporters” (Pharmaceutics, 2024)
# Test system: MDCK II-WT, MDCK II-MRP2, MDCK II-BCRP and MDCK II-MRP3 cells
# Experiment: MTT cell proliferation assay
# Assay type: cell-based
# Conditions: experimentally selected concentrations
# Text: The effect of PEG400 on baicalin transport was investigated in MDCKII-WT, MDCKII-MRP2, MDCK II-BCRP, and MDCK II-MRP3 cell monolayer models. First, an MTT cell proliferation assay was used to evaluate the effects of baicalin as well as PEG400 concentration on […]. […] The results of the transporter experiments are shown in Figure 5 and Table 2, which indicate that the exocytosis ratio of MDCKII-WT cells in the control group for the transport of the substrate baicalin was 2.58 ± 0.27. This implies that the transport of baicalin through the cell membrane is mediated by a transporter. For the MDCK-WT cell model, the exocytosis ratios of baicalin decreased to 1.94 ± 0.27, 1.53 ± 0.14, and 1.19 ± 0.12, respectively, in response to low, medium, and high concentrations of PEG400. […] Consistent results were obtained in the MDCK II-MRP2 and MDCK II-BCRP cell models, where the percentage of baicalin efflux was reduced, from 2.45 ± 0.04 and 3.01 ± 0.05 to 2.22 ± 0.17, 1.08 ± 0.09, and 0.8 ± 0.04, respectively, and 1.59 ± 0.06, 1.02 ± 0.04, and 0.8 ± 0.02 in a concentration-dependent decrease. The results of the efflux ratio of baicalin in MDCK-WT, MDCK-MRP2, and MDCK-BCRP cell monolayers by 0.25%, 0.5%, and 1% PEG400 are shown in Figure 5f.
# Figure 4 The effect diagram of cell vitality. (a,b) The effects of different concentrations of baicalin and PEG400 on the survival of MDCK II-WT cells. […]
compound,measurement,value
"O=C(O)[C@H]1O[C@@H](Oc2cc3oc(-c4ccccc4)cc(=O)c3c(O)c2O)[C@H](O)[C@@H](O)[C@@H]1O [BG, Baicalein-7-O-β-D-glucuronide]",effect on cell proliferation (MTT),no significant effect on the proliferation
